Data reported in the supplement of paper PMC6004109.

Experiments:
Conditions in all cases: temperature: 37 °C
[1] = system: Candida glabrata ZIM 2344 (RPMI); assay: FICI minimum (fractional inhibitory concentration index, Loewe) (dimensionless); higher = less synergy / more antagonism
Procedure: (§1)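 CLSI M27-A3 checkerboard broth microdilution of an immunomodulatory drug (or amoxicillin) combined with an antifungal against S. cerevisiae and C. glabrata isolates. Growth was read as OD600 after incubation at 37 °C (48 h for the reported MICs). Reported quantities are the FICI (Loewe: MIC50 for azoles and immunomodulators, MIC90 for AMB; ≤0.5 synergy, ≥4 antagonism), as minimum and maximum over the surface, and the Bliss-independence sum of statistically significant ΔE (positive = synergy). Clinical isolates were tested in RPMI; C. glabrata ATCC 2001 and its pdr1Δ mutant were tested in YPD.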

[2] = system: Candida glabrata ZIM 2365 (RPMI); assay: as above
Procedure: as §1

[3] = system: Candida glabrata ZIM 2369 (RPMI); assay: as above
Procedure: as §1

[4] = system: Candida glabrata ZIM 2382 (RPMI); assay: as above
Procedure: as §1

[5] = system: Candida glabrata ZIM 2385 (RPMI); assay: as above
Procedure: as §1

[6] = system: Candida glabrata ZIM 2389 (RPMI); assay: as above
Procedure: as §1

[7] = system: Saccharomyces cerevisiae ZIM 2247 (RPMI); assay: as above
Procedure: as §1

[8] = system: Saccharomyces cerevisiae ZIM 2255 (RPMI); assay: as above
Procedure: as §1

[9] = system: Saccharomyces cerevisiae ZIM 2269 (RPMI); assay: as above
Procedure: as §1

[10] = system: Saccharomyces cerevisiae ZIM 2558 (RPMI); assay: as above
Procedure: as §1

[11] = system: Saccharomyces cerevisiae ZIM 2566 (RPMI); assay: as above
Procedure: as §1

[12] = system: Candida glabrata ZIM 2344 (RPMI); assay: FICI maximum (fractional inhibitory concentration index, Loewe) (dimensionless); higher = less synergy / more antagonism
Procedure: as §1

[13] = system: Candida glabrata ZIM 2365 (RPMI); assay: as above
Procedure: as §1

[14] = system: Candida glabrata ZIM 2369 (RPMI); assay: as above
Procedure: as §1

[15] = system: Candida glabrata ZIM 2382 (RPMI); assay: as above
Procedure: as §1

[16] = system: Candida glabrata ZIM 2385 (RPMI); assay: as above
Procedure: as §1

[17] = system: Candida glabrata ZIM 2389 (RPMI); assay: as above
Procedure: as §1

[18] = system: Saccharomyces cerevisiae ZIM 2247 (RPMI); assay: as above
Procedure: as §1

[19] = system: Saccharomyces cerevisiae ZIM 2255 (RPMI); assay: as above
Procedure: as §1

[20] = system: Saccharomyces cerevisiae ZIM 2269 (RPMI); assay: as above
Procedure: as §1

[21] = system: Saccharomyces cerevisiae ZIM 2558 (RPMI); assay: as above
Procedure: as §1

[22] = system: Saccharomyces cerevisiae ZIM 2566 (RPMI); assay: as above
Procedure: as §1

[23] = system: Candida glabrata ZIM 2344 (RPMI); assay: Bliss independence sum of statistically significant ΔE (measured minus predicted growth inhibition) over checkerboard surface (fraction (sum of ΔE; 1 = 100%)); higher = more synergy
[24] = system: Candida glabrata ZIM 2365 (RPMI); assay: as above
[25] = system: Candida glabrata ZIM 2369 (RPMI); assay: as above
[26] = system: Candida glabrata ZIM 2382 (RPMI); assay: as above
[27] = system: Candida glabrata ZIM 2385 (RPMI); assay: as above
[28] = system: Candida glabrata ZIM 2389 (RPMI); assay: as above
[29] = system: Saccharomyces cerevisiae ZIM 2247 (RPMI); assay: as above
[30] = system: Saccharomyces cerevisiae ZIM 2255 (RPMI); assay: as above
[31] = system: Saccharomyces cerevisiae ZIM 2269 (RPMI); assay: as above
[32] = system: Saccharomyces cerevisiae ZIM 2558 (RPMI); assay: as above
[33] = system: Saccharomyces cerevisiae ZIM 2566 (RPMI); assay: as above
[34] = system: Candida glabrata ATCC 2001 (YPD); assay: FICI minimum (fractional inhibitory concentration index, Loewe) (dimensionless); higher = less synergy / more antagonism
Procedure: as §1

[35] = system: Candida glabrata ATCC 2001 (YPD); assay: FICI maximum (fractional inhibitory concentration index, Loewe) (dimensionless); higher = less synergy / more antagonism
Procedure: as §1

[36] = system: Candida glabrata ATCC 2001 (YPD); assay: Bliss independence sum of statistically significant ΔE (measured minus predicted growth inhibition) over checkerboard surface (fraction (sum of ΔE; 1 = 100%)); higher = more synergy
[37] = system: Saccharomyces cerevisiae ZIM 2260 (RPMI); assay: FICI minimum (fractional inhibitory concentration index, Loewe) (dimensionless); higher = less synergy / more antagonism
Procedure: as §1

[38] = system: Saccharomyces cerevisiae ZIM 2260 (RPMI); assay: FICI maximum (fractional inhibitory concentration index, Loewe) (dimensionless); higher = less synergy / more antagonism
Procedure: as §1

[39] = system: Saccharomyces cerevisiae ZIM 2260 (RPMI); assay: Bliss independence sum of statistically significant ΔE (measured minus predicted growth inhibition) over checkerboard surface (fraction (sum of ΔE; 1 = 100%)); higher = more synergy

Structure (SMILES)	FICI minimum [1]	FICI minimum [2]	FICI minimum [3]	FICI minimum [4]	FICI minimum [5]	FICI minimum [6]	FICI minimum [7]	FICI minimum [8]	FICI minimum [9]	FICI minimum [10]	FICI minimum [11]	FICI maximum [12]	FICI maximum [13]	FICI maximum [14]	FICI maximum [15]	FICI maximum [16]	FICI maximum [17]	FICI maximum [18]	FICI maximum [19]	FICI maximum [20]	FICI maximum [21]	FICI maximum [22]	Bliss independence sum [23]	Bliss independence sum [24]	Bliss independence sum [25]	Bliss independence sum [26]	Bliss independence sum [27]	Bliss independence sum [28]	Bliss independence sum [29]	Bliss independence sum [30]	Bliss independence sum [31]	Bliss independence sum [32]	Bliss independence sum [33]	FICI minimum [34]	FICI maximum [35]	Bliss independence sum [36]	FICI minimum [37]	FICI maximum [38]	Bliss independence sum [39]
CC1(C)S[C@@H]2[C@H](NC(=O)[C@H](N)c3ccc(O)cc3)C(=O)N2[C@H]1C(=O)O [amoxicillin] + OC(Cn1cncn1)(Cn1cncn1)c1ccc(F)cc1F [fluconazole]	0.508	1.01	1.01	1.01	1.02	1.02	1.02	2.01	1.03	0.508	0.516	0.75	1.25	1.25	1.25	1.5	2.25	2.12	2.12	2	1.25	1.25	0.963	-0.019	1.02	0.34	1.92	2.98	-1.44	-2.93	-1.87	1.93	0.455						
COc1c(C)c2c(c(O)c1C/C=C(\C)CCC(=O)O)C(=O)OC2 [mycophenolic acid] + CC(=O)N1CCN(c2ccc(OCC3COC(Cn4ccnc4)(c4ccc(Cl)cc4Cl)O3)cc2)CC1 [ketoconazole]																																		1.25	4.12	-2.13			
COc1c(C)c2c(c(O)c1C/C=C(\C)CCC(=O)O)C(=O)OC2 [mycophenolic acid] + CCC(C)n1ncn(-c2ccc(N3CCN(c4ccc(OCC5COC(Cn6cncn6)(c6ccc(Cl)cc6Cl)O5)cc4)CC3)cc2)c1=O [itraconazole]	0.174	0.516	1.01	0.508	0.508	0.508	1.02	0.517	1.03	2.01		1.62	4.12	2.25	0.75	1.02	1.25	2.53	1.13	1.25	4.25		10	0.327	-0.825	0.427	3.12	4.83	-0.0362	2.31	0.69	-4.07					1	2.16	-2.11
COc1c(C)c2c(c(O)c1C/C=C(\C)CCC(=O)O)C(=O)OC2 [mycophenolic acid] + CC[C@@H]([C@H](C)O)n1ncn(-c2ccc(N3CCN(c4ccc(OC[C@@H]5CO[C@@](Cn6cncn6)(c6ccc(F)cc6F)C5)cc4)CC3)cc2)c1=O [posaconazole]																																		1.5	4.12	-3.21			
COc1c(C)c2c(c(O)c1C/C=C(\C)CCC(=O)O)C(=O)OC2 [mycophenolic acid] + C[C@@H](c1ncncc1F)[C@](O)(Cn1cncn1)c1ccc(F)cc1F [voriconazole]																																		1.06	2.5	-2.31			
